Data as given in ChEMBL document CHEMBL1909046, “DrugMatrix in vitro pharmacology data”.

Key:
[1] = molecular target: T1, Alpha-2A adrenergic receptor (Homo sapiens, UniProt P08913); type: cell membranes, Sf9, Membrane; also: in other assays of this panel Not Active means under 50% inhibition at 10 µM
T1 sequence (P08913 whole entry): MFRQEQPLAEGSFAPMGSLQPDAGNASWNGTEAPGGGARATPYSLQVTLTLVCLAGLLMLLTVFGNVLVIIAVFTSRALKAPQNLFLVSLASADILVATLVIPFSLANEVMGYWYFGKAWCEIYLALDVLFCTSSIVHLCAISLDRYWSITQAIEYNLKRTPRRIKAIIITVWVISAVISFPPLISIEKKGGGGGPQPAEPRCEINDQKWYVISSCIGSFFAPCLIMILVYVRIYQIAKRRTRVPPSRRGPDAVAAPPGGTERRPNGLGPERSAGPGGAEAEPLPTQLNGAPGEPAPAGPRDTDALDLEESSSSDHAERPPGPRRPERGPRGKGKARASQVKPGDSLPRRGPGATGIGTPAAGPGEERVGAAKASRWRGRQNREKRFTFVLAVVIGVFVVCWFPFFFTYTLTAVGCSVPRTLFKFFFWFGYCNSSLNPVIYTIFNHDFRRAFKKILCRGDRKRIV

[2] = DRUGMATRIX: ATPase, Na+/K+ enzyme inhibition (substrate: ATP); type: tissue-based, Sus scrofa, Heart; conditions: Not Active = under 50% inhibition at 10 µM
Calcitonin receptor = molecular target: T2, Calcitonin receptor (Homo sapiens, UniProt P30988); type: cell membranes, Membrane; conditions: t47d; also: in other assays of this panel Not Active means under 50% inhibition at 10 µM
T2 sequence (P30988 whole entry): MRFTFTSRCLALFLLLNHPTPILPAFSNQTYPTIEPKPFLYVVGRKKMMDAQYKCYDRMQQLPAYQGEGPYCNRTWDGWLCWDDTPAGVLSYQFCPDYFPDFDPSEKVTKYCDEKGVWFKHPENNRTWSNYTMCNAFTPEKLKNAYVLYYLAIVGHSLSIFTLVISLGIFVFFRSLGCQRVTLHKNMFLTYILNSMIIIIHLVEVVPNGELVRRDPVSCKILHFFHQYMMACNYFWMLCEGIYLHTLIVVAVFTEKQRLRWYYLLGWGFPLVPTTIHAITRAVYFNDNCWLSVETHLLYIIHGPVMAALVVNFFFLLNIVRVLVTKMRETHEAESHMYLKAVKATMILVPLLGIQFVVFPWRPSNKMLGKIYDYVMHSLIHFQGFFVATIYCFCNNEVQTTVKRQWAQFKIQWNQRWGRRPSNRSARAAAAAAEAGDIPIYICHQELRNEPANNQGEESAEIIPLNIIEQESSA

[3] = molecular target: T3, 5-hydroxytryptamine receptor 2C (Homo sapiens, UniProt P28335); assay: DRUGMATRIX: Serotonin (5-Hydroxytryptamine) 5-HT2C radioligand binding (ligand: [3H] Mesulergine); type: cell membranes, CHO-K1, Membrane; conditions: Not Active = under 50% inhibition at 10 µM
T3 sequence (P28335 whole entry): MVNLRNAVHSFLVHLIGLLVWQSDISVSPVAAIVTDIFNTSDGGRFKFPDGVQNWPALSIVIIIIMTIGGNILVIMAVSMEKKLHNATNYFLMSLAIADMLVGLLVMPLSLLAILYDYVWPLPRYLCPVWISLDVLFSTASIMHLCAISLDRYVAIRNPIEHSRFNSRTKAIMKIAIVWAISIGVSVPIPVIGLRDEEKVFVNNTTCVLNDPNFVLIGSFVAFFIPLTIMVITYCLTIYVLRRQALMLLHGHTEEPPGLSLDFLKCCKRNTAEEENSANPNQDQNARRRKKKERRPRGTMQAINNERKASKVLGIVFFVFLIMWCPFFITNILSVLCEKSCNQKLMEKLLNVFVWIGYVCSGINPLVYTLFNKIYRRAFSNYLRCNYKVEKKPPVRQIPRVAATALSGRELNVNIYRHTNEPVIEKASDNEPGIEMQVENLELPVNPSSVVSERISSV

Histamine H2 receptor = Histamine H2 receptor (Homo sapiens, UniProt P25021); type: cell membranes, CHO-K1, Membrane; also: in other assays of this panel Not Active means under 50% inhibition at 10 µM
Estrogen receptor = molecular target: T4, Estrogen receptor (Homo sapiens, UniProt P03372); conditions: sf9; also: in other assays of this panel Not Active means under 50% inhibition at 10 µM
T4 sequence (P03372 whole entry): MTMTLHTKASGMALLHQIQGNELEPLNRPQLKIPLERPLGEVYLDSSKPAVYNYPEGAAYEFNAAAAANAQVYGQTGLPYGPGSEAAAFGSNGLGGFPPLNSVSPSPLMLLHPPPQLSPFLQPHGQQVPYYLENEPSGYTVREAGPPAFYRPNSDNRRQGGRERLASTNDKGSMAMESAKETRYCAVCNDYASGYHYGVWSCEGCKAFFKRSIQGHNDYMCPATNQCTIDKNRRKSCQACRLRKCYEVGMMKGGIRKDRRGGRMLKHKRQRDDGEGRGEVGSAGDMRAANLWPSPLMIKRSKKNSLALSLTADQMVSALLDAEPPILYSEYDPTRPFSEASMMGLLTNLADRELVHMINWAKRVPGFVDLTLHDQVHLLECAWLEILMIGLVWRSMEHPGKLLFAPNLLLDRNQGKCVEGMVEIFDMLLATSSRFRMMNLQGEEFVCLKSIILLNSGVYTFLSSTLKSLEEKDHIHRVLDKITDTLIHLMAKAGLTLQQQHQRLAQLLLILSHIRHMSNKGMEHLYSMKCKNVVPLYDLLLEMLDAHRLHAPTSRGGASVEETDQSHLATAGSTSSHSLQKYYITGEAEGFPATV

Glucocorticoid receptor = molecular target: T5, Glucocorticoid receptor (Homo sapiens, UniProt P04150); conditions: hela s3; also: in other assays of this panel Not Active means under 50% inhibition at 10 µM
T5 sequence (P04150 whole entry): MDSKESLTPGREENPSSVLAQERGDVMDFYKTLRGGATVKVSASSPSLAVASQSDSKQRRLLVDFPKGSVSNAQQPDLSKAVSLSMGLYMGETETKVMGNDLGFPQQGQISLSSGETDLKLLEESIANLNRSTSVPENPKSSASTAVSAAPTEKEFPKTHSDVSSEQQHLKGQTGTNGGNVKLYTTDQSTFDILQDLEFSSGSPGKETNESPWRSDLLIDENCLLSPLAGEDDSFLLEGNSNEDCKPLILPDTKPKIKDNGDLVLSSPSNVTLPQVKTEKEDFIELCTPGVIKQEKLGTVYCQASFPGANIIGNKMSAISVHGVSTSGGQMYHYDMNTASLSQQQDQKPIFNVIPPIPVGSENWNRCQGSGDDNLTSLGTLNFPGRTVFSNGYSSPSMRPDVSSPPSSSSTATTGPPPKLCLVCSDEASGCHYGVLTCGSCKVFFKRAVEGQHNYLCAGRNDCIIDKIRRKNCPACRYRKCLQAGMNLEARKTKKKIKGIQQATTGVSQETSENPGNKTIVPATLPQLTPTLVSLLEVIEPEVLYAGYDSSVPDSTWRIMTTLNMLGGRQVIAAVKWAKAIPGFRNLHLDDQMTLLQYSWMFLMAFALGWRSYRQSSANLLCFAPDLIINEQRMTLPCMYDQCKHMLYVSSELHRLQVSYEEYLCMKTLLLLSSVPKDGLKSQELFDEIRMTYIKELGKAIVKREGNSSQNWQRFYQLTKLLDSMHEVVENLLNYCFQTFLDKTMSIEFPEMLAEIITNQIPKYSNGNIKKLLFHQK

Chain of Histamine H2 receptor (P25021 whole entry): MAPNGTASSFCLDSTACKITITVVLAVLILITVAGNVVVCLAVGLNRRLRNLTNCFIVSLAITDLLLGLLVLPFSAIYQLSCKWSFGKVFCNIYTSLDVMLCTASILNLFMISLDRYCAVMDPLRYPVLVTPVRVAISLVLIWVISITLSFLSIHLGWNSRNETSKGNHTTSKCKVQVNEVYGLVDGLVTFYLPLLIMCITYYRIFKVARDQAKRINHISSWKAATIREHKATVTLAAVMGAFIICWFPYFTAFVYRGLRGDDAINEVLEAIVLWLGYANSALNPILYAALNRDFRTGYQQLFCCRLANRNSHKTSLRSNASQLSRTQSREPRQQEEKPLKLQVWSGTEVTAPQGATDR

Compound | IC50 ([1]; sf9) | IC50 [2] | Ki [2] | IC50 (Calcitonin receptor) | IC50 ([3]; cho-k1) | IC50 (Histamine H2 receptor; cho-k1) | IC50 (Estrogen receptor) | IC50 (Glucocorticoid receptor) | Ki ([1]; sf9) | Ki (Calcitonin receptor) | Ki ([3]; cho-k1) | Ki (Histamine H2 receptor; cho-k1) | Ki (Estrogen receptor) | Ki (Glucocorticoid receptor) | IC50 (Histamine H2 receptor; read-out: IC50) [µM] | Ki (Histamine H2 receptor; read-out: Ki) [µM] | IC50 ([1]; read-out: IC50) [µM] | Ki ([1]; read-out: Ki) [µM] | IC50 ([3]; read-out: IC50) [µM] | Ki ([3]; read-out: Ki) [µM]
CO[C@H]1O[C@@H]2O[C@@]3(C)CC[C@H]4[C@H](C)CC[C@@H]([C@H]1C)[C@@]24OO3 | Not Active | Not Active | Not Active | Not Active | Not Active | Not Active | Not Active | Not Active | – | – | – | – | – | – | – | – | – | – | – | –
O=c1[nH]c2ccccc2c2ccccc12 | Not Active | Not Active | Not Active | Not Active | Not Active | Not Active | Not Active | Not Active | – | – | – | – | – | – | – | – | – | – | – | –
COc1ccc(C[C@H](N)C(=O)N[C@H]2[C@@H](O)[C@H](n3cnc4c(N(C)C)ncnc43)O[C@@H]2CO)cc1 [PUROMYCIN] | Not Active | Not Active | Not Active | Not Active | Not Active | Not Active | Not Active | Not Active | – | – | – | – | – | – | – | – | – | – | – | –
CHROMIC CHLORIDE | Not Active | Not Active | Not Active | Not Active | Not Active | Not Active | Not Active | Not Active | Not Active | Not Active | Not Active | Not Active | Not Active | Not Active | – | – | – | – | – | –
C[C@@H]1[C@H](O)[C@@H](C)/C=C/C=C/C=C/C=C/C=C/C=C/C=C/[C@H](O[C@@H]2O[C@H](C)[C@@H](O)[C@H](N)[C@@H]2O)C[C@@H]2O[C@](O)(C[C@@H](O)C[C@@H](O)[C@H](O)CC[C@@H](O)C[C@@H](O)CC(=O)O[C@H]1C)C[C@H](O)[C@H]2C(=O)O [AMPHOTERICIN B] | Not Active | Not Active | Not Active | Not Active | Not Active | Not Active | Not Active | Not Active | – | – | – | – | – | – | – | – | – | – | – | –
Cc1c(N)nc([C@H](CC(N)=O)NC[C@H](N)C(N)=O)nc1C(=O)N[C@H](C(=O)N[C@H](C)[C@@H](O)[C@H](C)C(=O)N[C@H](C(=O)NCCc1nc(-c2nc(C(=O)NCCC[S+](C)C)cs2)cs1)[C@@H](C)O)[C@@H](O[C@@H]1O[C@@H](CO)[C@@H](O)[C@H](O)[C@@H]1O[C@H]1O[C@H](CO)[C@@H](O)[C@H](OC(N)=O)[C@@H]1O)c1c[nH]cn1.[Br-] [BLEOMYCIN A2] | Not Active | Not Active | Not Active | Not Active | Not Active | Not Active | Not Active | Not Active | – | – | – | – | – | – | – | – | – | – | – | –
O=C(O)CNCP(=O)(O)O [GLYPHOSATE] | Not Active | Not Active | Not Active | Not Active | Not Active | Not Active | Not Active | Not Active | – | – | – | – | – | – | – | – | – | – | – | –
Nc1nc(F)nc2c1ncn2[C@@H]1O[C@H](CO)[C@@H](O)[C@@H]1O [FLUDARABINE] | Not Active | Not Active | Not Active | Not Active | Not Active | Not Active | Not Active | Not Active | – | – | – | – | – | – | – | – | – | – | – | –
O=C(Nc1ccc(Cl)c(Cl)c1)c1cc(Cl)cc(Cl)c1O [3,3',4',5-TETRACHLOROSALICYLANILIDE] | Not Active | Not Active | Not Active | Not Active | Not Active | Not Active | Not Active | Not Active | – | – | – | – | – | – | – | – | – | – | – | –
CN(Cc1cc(Br)cc(Br)c1N)C1CCCCC1 [BROMHEXINE] | Not Active | Not Active | Not Active | Not Active | Not Active | Not Active | Not Active | Not Active | – | – | – | – | – | – | – | – | – | – | – | –
CC(C)Cc1ccc([C@H](C)C(=O)O)cc1 [DEXIBUPROFEN] | Not Active | Not Active | Not Active | Not Active | Not Active | Not Active | Not Active | Not Active | – | – | – | – | – | – | – | – | – | – | – | –
CC(C)Cn1cnc2c(N)nc3ccccc3c21 [IMIQUIMOD] | Not Active | Not Active | Not Active | Not Active | Not Active | – | Not Active | Not Active | – | – | – | – | – | – | 1.51 | 1.48 | – | – | – | –
POVIDONE | Not Active | Not Active | Not Active | Not Active | Not Active | Not Active | Not Active | Not Active | Not Active | Not Active | Not Active | Not Active | Not Active | Not Active | – | – | – | – | – | –
COc1ccccc1OCCNCC(O)COc1cccc2[nH]c3ccccc3c12 (centres undefined) [CARVEDILOL] | – | Not Active | Not Active | Not Active | – | Not Active | Not Active | Not Active | – | – | – | – | – | – | – | – | 0.106 | 0.04 | 0.115 | 0.06
CARBOXYMETHYLCELLULOSE | Not Active | Not Active | Not Active | Not Active | Not Active | Not Active | Not Active | Not Active | Not Active | Not Active | Not Active | Not Active | Not Active | Not Active | – | – | – | – | – | –
Cc1cc(C(C)(C)C)c(O)c(C)c1CC1=NCCN1 [OXYMETAZOLINE] | – | Not Active | Not Active | Not Active | – | Not Active | Not Active | Not Active | – | – | – | – | – | – | – | – | – | – | 0.578 | 0.303
